Test results reported in ChEMBL document CHEMBL1201862, “PubChem BioAssay data set” (2004).
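In this assay, cells in 96-well plates receive the compound at five concentrations for 48 hours. Endpoints are linearly interpolated between the surrounding concentrations. GI50: concentration for 50% inhibition of growth.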 Active and inactive are the calls of the source. No stated cut-off is given here; in the data, active = GI50 up to about 1.1 µM and inactive = higher.

Columns and labels:
Assay in all cases: NCI anticancer screen, dose series, 48 h
SNB-19 = tested on: SNB-19
OVCAR-4 = tested on: OVCAR-4
U-251 = tested on: U-251
EKVX = tested on: EKVX
NCI-H226 = tested on: NCI-H226
M14 = tested on: M14
UO-31 = tested on: UO-31
KM12 = tested on: KM12
SF-295 = tested on: SF-295
OVCAR-5 = tested on: OVCAR-5
ACHN = tested on: ACHN
NCI-H522 = tested on: NCI-H522
NCI/ADR-RES = tested on: NCI/ADR-RES
HT-29 = tested on: HT-29
RXF 393 = tested on: RXF 393
NCI-H23 = tested on: NCI-H23
OVCAR-3 = tested on: OVCAR-3
HOP-92 = tested on: HOP-92
HL-60 = tested on: HL-60
786-0 = tested on: 786-0
SN12C = tested on: SN12C
A498 = tested on: A498
LOX IMVI = tested on: LOX IMVI
CAKI-1 = tested on: CAKI-1
MCF7 = tested on: MCF7
MOLT-4 = tested on: MOLT-4
SK-MEL-2 = tested on: SK-MEL-2
SF-268 = tested on: SF-268
SK-MEL-28 = tested on: SK-MEL-28
MDA-N = tested on: MDA-N
CCRF-CEM = tested on: CCRF-CEM
DU-145 = tested on: DU-145
HOP-62 = tested on: HOP-62
BT-549 = tested on: BT-549
HCC 2998 = tested on: HCC 2998
SK-MEL-5 = tested on: SK-MEL-5
SK-OV-3 = tested on: SK-OV-3
UACC-257 = tested on: UACC-257
COLO 205 = tested on: COLO 205
K562 = tested on: K562
RPMI-8226 = tested on: RPMI-8226
MDA-MB-231 = tested on: MDA-MB-231
SNB-75 = tested on: SNB-75
MDA-MB-435 = tested on: MDA-MB-435
SW-620 = tested on: SW-620
HCT-116 = tested on: HCT-116
HCT-15 = tested on: HCT-15
PC-3 = tested on: PC-3
UACC-62 = tested on: UACC-62
A549 = tested on: A549
IGROV-1 = tested on: IGROV-1
NCI-H460 = tested on: NCI-H460
T47D = tested on: T47D
TK-10 = tested on: TK-10
SR = tested on: SR
OVCAR-8 = tested on: OVCAR-8
Malme-3M = tested on: Malme-3M

With `O=C(c1ccccc1)c1ccc2[nH]c(-c3c(Cl)c(Cl)c(Cl)c(Cl)c3C(=O)Nc3ccco3)nc2c1` the GI50 (SNB-19) was 99.8 µM (inactive), the GI50 (OVCAR-4) was 42.3 µM (inactive) and the GI50 (U-251) was 42.5 µM (inactive). The GI50 (EKVX) was 67 µM (inactive), the GI50 (NCI-H226) was 54.2 µM (inactive) and the GI50 (M14) was 36.7 µM (inactive). For the same molecule, the GI50 (UO-31) was 51.5 µM (inactive), the GI50 (KM12) was 33 µM (inactive) and the GI50 (SF-295) was 23.6 µM (inactive). For the same molecule, the GI50 (OVCAR-5) was > 100 µM (inactive), the GI50 (ACHN) was > 100 µM (inactive) and the GI50 (NCI-H522) was 25.7 µM (inactive). The GI50 (NCI/ADR-RES) was 16.4 µM (inactive), the GI50 (HT-29) was 28.4 µM (inactive) and the GI50 (RXF 393) was 41.8 µM (inactive). The GI50 (NCI-H23) was 4.86 µM (inactive), the GI50 (OVCAR-3) was 49.4 µM (inactive) and the GI50 (HOP-92) was 40.5 µM (inactive). For the same molecule, the GI50 (HL-60) was 24.2 µM (inactive), the GI50 (786-0) was 96.2 µM (inactive) and the GI50 (SN12C) was 48.2 µM (inactive). The GI50 (A498) was 20 µM (inactive), the GI50 (LOX IMVI) was 38.1 µM (inactive) and the GI50 (CAKI-1) was > 100 µM (inactive). For the same molecule, the GI50 (MCF7) was 24.8 µM (inactive), the GI50 (MOLT-4) was 18.6 µM (inactive) and the GI50 (SK-MEL-2) was 20.9 µM (inactive). The GI50 (SF-268) was 27 µM (inactive), the GI50 (SK-MEL-28) was 81.1 µM (inactive) and the GI50 (MDA-N) was 15.3 µM (inactive). For the same molecule, the GI50 (CCRF-CEM) was 26.9 µM (inactive), the GI50 (DU-145) was 78.9 µM (inactive) and the GI50 (HOP-62) was 45.3 µM (inactive). For the same molecule, the GI50 (BT-549) was 22.2 µM (inactive), the GI50 (HCC 2998) was 15.4 µM (inactive) and the GI50 (SK-MEL-5) was 28.4 µM (inactive). The GI50 (SK-OV-3) was > 100 µM (inactive), the GI50 (UACC-257) was 45.7 µM (inactive) and the GI50 (COLO 205) was 45.5 µM (inactive). The GI50 (K562) was 16.6 µM (inactive), the GI50 (RPMI-8226) was 19.8 µM (inactive) and the GI50 (MDA-MB-231) was 34.4 µM (inactive). For the same molecule, the GI50 (SNB-75) was > 100 µM (inactive), the GI50 (MDA-MB-435) was 12.6 µM (inactive) and the GI50 (SW-620) was 37.8 µM (inactive). For the same molecule, the GI50 (HCT-116) was 34 µM (inactive), the GI50 (HCT-15) was 27.2 µM and the GI50 (PC-3) was 17.1 µM (inactive). For the same molecule, the GI50 (UACC-62) was 49.5 µM (inactive), the GI50 (A549) was 26.5 µM (inactive) and the GI50 (IGROV-1) was 41.1 µM (inactive). The GI50 (NCI-H460) was 33.5 µM (inactive), the GI50 (T47D) was 37 µM (inactive) and the GI50 (TK-10) was 39.7 µM (inactive). The GI50 (SR) was 12.6 µM (inactive) and the GI50 (OVCAR-8) was 60.3 µM (inactive).
With `CC(=O)OC1CC2C(=O)C(=O)C1(C)C2(C)C` (configuration not stated) the GI50 (SNB-19) was > 100 µM (inactive), the GI50 (OVCAR-4) was > 100 µM (inactive) and the GI50 (U-251) was > 100 µM (inactive). The GI50 (EKVX) was > 100 µM (inactive), the GI50 (NCI-H226) was > 100 µM (inactive) and the GI50 (M14) was > 100 µM (inactive). For the same molecule, the GI50 (UO-31) was > 100 µM (inactive), the GI50 (SF-295) was > 100 µM (inactive) and the GI50 (OVCAR-5) was > 100 µM (inactive). For the same molecule, the GI50 (ACHN) was > 100 µM (inactive), the GI50 (NCI/ADR-RES) was > 100 µM (inactive) and the GI50 (HT-29) was > 100 µM (inactive). For the same molecule, the GI50 (NCI-H23) was > 100 µM (inactive), the GI50 (OVCAR-3) was > 100 µM (inactive) and the GI50 (HOP-92) was 56.6 µM (inactive). The GI50 (HL-60) was > 10 µM (inactive), the GI50 (786-0) was > 100 µM (inactive) and the GI50 (SN12C) was > 100 µM (inactive). The GI50 (A498) was > 100 µM (inactive), the GI50 (MCF7) was > 100 µM (inactive) and the GI50 (MOLT-4) was > 100 µM (inactive). For the same molecule, the GI50 (SF-268) was > 100 µM (inactive), the GI50 (SK-MEL-28) was > 100 µM (inactive) and the GI50 (MDA-N) was > 100 µM (inactive). The GI50 (CCRF-CEM) was > 100 µM (inactive), the GI50 (DU-145) was > 100 µM (inactive) and the GI50 (HOP-62) was > 100 µM (inactive). For the same molecule, the GI50 (BT-549) was > 100 µM (inactive), the GI50 (HCC 2998) was > 100 µM (inactive) and the GI50 (SK-MEL-5) was > 100 µM (inactive). For the same molecule, the GI50 (SK-OV-3) was > 100 µM (inactive), the GI50 (UACC-257) was > 100 µM (inactive) and the GI50 (COLO 205) was > 100 µM (inactive). For the same molecule, the GI50 (K562) was > 100 µM (inactive), the GI50 (RPMI-8226) was > 100 µM (inactive) and the GI50 (MDA-MB-231) was > 100 µM (inactive). For the same molecule, the GI50 (SNB-75) was > 100 µM (inactive), the GI50 (MDA-MB-435) was > 100 µM (inactive) and the GI50 (SW-620) was > 100 µM (inactive). The GI50 (HCT-116) was > 100 µM (inactive), the GI50 (HCT-15) was > 100 µM and the GI50 (PC-3) was > 100 µM (inactive). For the same molecule, the GI50 (UACC-62) was > 100 µM (inactive), the GI50 (A549) was > 100 µM (inactive) and the GI50 (Malme-3M) was > 100 µM (inactive). The GI50 (IGROV-1) was > 100 µM (inactive), the GI50 (NCI-H460) was > 100 µM (inactive) and the GI50 (T47D) was > 100 µM (inactive). For the same molecule, the GI50 (TK-10) was > 100 µM (inactive), the GI50 (SR) was > 100 µM (inactive) and the GI50 (OVCAR-8) was > 100 µM (inactive).
